Measurements published in publication PMC9606187, “Dual HDAC/BRD4 Inhibitors Relieves Neuropathic Pain by Attenuating Inflammatory Response in Microglia After Spared Nerve Injury” (Neurotherapeutics, 2022).

Columns and labels:
[1] = test system: model of neuropathic pain; set-up: method as in PMID 33529752; conditions: cited from earlier work
[2] = target: T1, Recombinant Human Bromodomain containing protein 4, bromodomain 1 (BRD4-BD1) (Homo sapiens, UniProt O60885); experiment: AlphaScreen bromodomain binding assay (Reaction Biology), BRD4-1; conditions: ligand Histone H4 peptide (1–21) K5/8/12/16Ac-Biotin; in comparison with (+)-JQ1; read-out: IC50 on BRD4-BD1
T1 construct: bromodomain 1 (aa 44–170); purchased Reaction Biology (RBC) RD-11–140; host or cells: E. coli
Procedure: (§1) The reader assay is a binding assay using AlphaScreen technology […] assay and was performed by Reaction Biology (www.reactionbiology.com). The biotinylated peptide binding to the reader domain of His-tagged protein is monitored by the singlet oxygen transfer from the Streptavidin-coated donor beads to the AlphaScreen Ni-chelate acceptor beads.
(§2) Reaction buffer: 50 mM Hepes, pH7.5, 100 mM NaCl, 0.05% CHAPS, 0.1% BSA, and 1% DMSO (the final DMSO concentration may differ depending on compound stock and test concentrations).
(§3) Bromodomain: BRD4-1: RBC Cat# RD-11–140: Recombinant Human Bromodomain containing protein 4, bromodomain 1 (aa 44–170; Genbank Accession # NM_058243), expressed in E. coli with N-terminal His-tag. MW = 17.8 kDa; BRD4-2: RBC Cat# RD-11–141: Recombinant Human Bromodomain containing protein 4, bromodomain 2 (aa 349–460;Genbank Accession # NM_058243), expressed in E. coli with N-terminal His-tag. MW = 15.7 kDa. Ligand (C-term-Biotin): Histone H4 peptide (1–21) K5/8/12/16Ac-Biotin. Detection beads: PerkinElmer: Donor beads: Streptavidin-coated donor beads; Acceptor beads: AlphaScreen Ni acceptor beads.
Reaction procedure: • Deliver 2.5X BRD in wells of reaction plate except No BRD control wells. Add buffer instead. • Deliver compounds in 100% DMSO into the BRD mixture by Acoustic technology (Echo550; nanoliter range). […]

HDAC1 = target: T2, HDAC1 (Homo sapiens, UniProt Q13547); experiment: HDAC1 immunoprecipitation & activity assay on treated HCT-116 cells; type: cell-based; conditions: HCT-116 cells treated at 10 µM for 12 h; in comparison with SAHA
T2 construct: endogenous in cells; host or cells: HCT-116
Procedure: HDAC assay: To test the inhibition activity of compounds, the HDAC1 immunoprecipitation (IP) & Activity Assay Kit (Catalog # K342-25; Biovision) was used under the protocol provided by the kit. HCT-116 cell lines were plated in 6 wells and treated with the investigated compounds at 10 µM for 12 h. After incubation, the media was removed, and the cells were washed with PBS (EuroClone) solution (2X). Then, 200 µl/well of lysis buffer with protease inhibitor was added and the cells were scraped and incubated in ice for 30 min. After centrifugation at 10,000 g for 10 min at 4 °C, the supernatant was collected. One hundred micrograms of each extract was incubated with 6 µl of Rabbit HDAC1 antibody and Rabbit IgG and the volume was reached to 500 µl with PBS with protease inhibitors. After incubation at 4 °C overnight a rotary mixer, 25 µl of the protein-A/G bead slurry, previously washed with PBS (2X), was added to the samples and incubated for 1 h at 4 °C. The beads were recovered after 3 washes with 1 ml PBS, by centrifuging at 14,000 g for ~ 10 s and used for HDAC assay.
HDAC assay preparation: For each reaction, 168 µl reaction mix containing HDAC assay buffer and HDAC substrate was prepared, added to the sample and to background control tube, and incubated at 37 °C for 2 h. SAHA was used as a positive control. […] The fluorescence was read at Ex/Em = 380/500 nm with Tecan M1000 plate reader.

naïve mice = experiment: Hot plate test, acute thermal pain in naïve mice; type: in vivo; conditions: 5 to 500 µM i.n.
Source text: Mice were randomly assigned to each treatment group. To evaluate the pharmacological profile of SUM35 (N-hydroxy-6-(1-methyl-6-phenyl-4H-benzo[f][1,2,4]triazolo[4,3-a][1,4]diazepin-8-yl)hex-5-ynamide), SUM52 ((S)-N-hydroxy-7-(2-(1-methyl-6-phenyl-4H-benzo[f][1,2,4]triazolo[4,3-a][1,4]diazepin-4-yl)acetamido)heptanamide) (Fig. 1F), synthesized in the laboratory of Prof. Maria Novella Romanelli, iBET762 (molibresib; (4S)-6-(4-Chlorophenyl)-N-ethyl-8-methoxy-1-methyl-4H-[1,2,4]triazolo[4,3,a][1,4] benzodiazepine-4-acetamide, and SAHA (vorinostat; suberoylanilide hydroxamic acid) (Sigma-Aldrich, Italy) were administered 15 min before the tests. Drugs were dissolved in 5% DMSO. Drug concentrations were prepared in such a way that the necessary dose could be administered in a volume of 10 µl per mouse by intranasal (i.n.) administration. The experimental protocol to test the effect of treatments on behavioral and in vitro tests included 3 control groups: untreated, vehicle (5% DMSO), and saline. A representative figure of the experimental protocol in naïve (C) and SNI (F) mice has been inserted in Supplementary Fig. 1.
For i.n. administration, mice were slightly anesthetized by 2% isoflurane inhalation and placed in a supine position. A 5 μl aliquot of solution (treatments or vehicle) was slowly dropped alternatively to each nostril with a micropipette tip.
Animals were habituated to the testing environment daily for at least 2 days before baseline testing. To evaluate onset and progression of pain hypersensitivity, neuropathic mice were monitored by measuring nociceptive responses every 30 min for 3 h before surgery or 3, 7, 10, and 14 days after nerve surgery. Experiments were performed on post-surgery day 7 and 14 when the pain hypersensitivity was well established. Each mouse served as its own control, the responses being measured both before and after surgery. All testing was performed with a blind procedure.

[3] = target: T3, Recombinant Human Bromodomain containing protein 4, bromodomain 2 (BRD4-BD2) (Homo sapiens, UniProt O60885); experiment: AlphaScreen bromodomain binding assay (Reaction Biology), BRD4-2
T3 construct: purchased Reaction Biology (RBC) RD-11–141; host or cells: E. coli
Procedure: as §1, §2, §3
Reaction procedure: • Deliver 2.5X BRD in wells of reaction plate except No BRD control wells. Add buffer instead. • Deliver compounds in 100% DMSO into the BRD mixture by Acoustic technology (Echo550; nanoliter range). Spin down and pre-incubation for 30 min. • Deliver 5X Ligand. Spin and shake. • Incubate for 30 min at room temperature with gentle shaking. • Deliver 5X donor beads. Spin and shake. • Deliver 5X acceptor beads. Spin and shake. Then gentle shaking in the dark for 60 min. • Alpha measurement (Ex/Em = 680/520–620 nm) in Enspire.

SNI mice [4] = experiment: Hargreaves' plantar test, thermal allodynia in SNI mice; type: in vivo
Procedure: (§4) For i.n. administration, mice were slightly anesthetized by 2% isoflurane inhalation and placed in a supine position [30]. A 5 μl aliquot of solution (treatments or vehicle) was slowly dropped alternatively to each nostril with a micropipette tip.
Behavioral testing was performed before surgery to establish a baseline for comparison with post-surgical values.
Thermal nociceptive threshold was measured using Hargreaves’ device, as described [33]. Nociceptive response for thermal sensitivity was expressed as thermal paw withdrawal latency in seconds. All determinations were averaged for each animal.

SNI mice [5] = experiment: Mechanical allodynia (Dynamic Plantar Aesthesiometer) in SNI mice; type: in vivo
Procedure: Mice were randomly assigned to each treatment group. […] Maria Novella Romanelli, iBET762 (molibresib; (4S)-6-(4-Chlorophenyl)-N-ethyl-8-methoxy-1-methyl-4H-[1,2,4]triazolo[4,3,a][1,4] benzodiazepine-4-acetamide, and SAHA (vorinostat; suberoylanilide hydroxamic acid) (Sigma-Aldrich, Italy) were administered 15 min before the tests. Drugs were dissolved in 5% DMSO. Drug concentrations were prepared in such a way that the necessary dose could be administered in a volume of 10 µl per mouse by intranasal (i.n.) administration. The experimental protocol to test the effect of treatments on behavioral and in vitro tests included 3 control groups: untreated, vehicle (5% DMSO), and saline.
as §4
Behavioral testing was performed before surgery to establish a baseline for comparison with post-surgical values. Mono-neuropathy was induced by spared nerve injury and this model of pain in mice has been in use for several years [31]. The SNI procedure was performed as previously described [31].
Mechanical allodynia was measured by using Dynamic Plantar Aesthesiometer (Ugo Basile, Bologna, Italy), as described [32]. Nociceptive response for mechanical sensitivity was expressed as mechanical paw withdrawal threshold (PWT) in grams. PWT was quantified by an observer blinded to the treatment.

[6] = time-course comparison, combination i-BET762 10 µg, SAHA 3 µg

T2 sequence (Q13547 whole entry): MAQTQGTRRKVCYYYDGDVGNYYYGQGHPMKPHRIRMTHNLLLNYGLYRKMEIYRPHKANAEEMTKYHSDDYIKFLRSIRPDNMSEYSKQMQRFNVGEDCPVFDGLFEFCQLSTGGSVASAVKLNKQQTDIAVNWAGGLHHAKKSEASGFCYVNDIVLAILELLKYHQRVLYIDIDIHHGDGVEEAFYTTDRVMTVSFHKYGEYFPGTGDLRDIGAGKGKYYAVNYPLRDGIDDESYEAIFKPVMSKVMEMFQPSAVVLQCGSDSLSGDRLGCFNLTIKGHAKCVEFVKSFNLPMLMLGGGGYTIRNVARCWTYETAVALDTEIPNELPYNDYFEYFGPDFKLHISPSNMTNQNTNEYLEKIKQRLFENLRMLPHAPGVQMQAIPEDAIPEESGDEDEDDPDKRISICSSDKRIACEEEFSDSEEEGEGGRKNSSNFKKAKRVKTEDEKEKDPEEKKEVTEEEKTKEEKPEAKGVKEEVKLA

Structure (SMILES) | time of peak of analgesic activity after administration [1] [min] | IC50 [2] [nM] | inhibition of HDAC1 enzymatic activity (HDAC1) | thermal antinociceptive effect (hot plate), whole dose range (naïve mice) | preference between BRD4-BD1 and BRD4-BD2 domains ([3]; BRD4-BD1 vs BRD4-BD2) | IC50 ([3]; ligand Histone H4 peptide (1–21) K5/8/12/16Ac-Biotin, in comparison with (+)-JQ1, read-out: IC50 on BRD4-BD2) [nM] | thermal antiallodynic activity, ipsilateral side (SNI mice [4]; 100 µM i.n.) | thermal antiallodynic activity, ipsilateral side (SNI mice [4]; 200 µM i.n.) | thermal antiallodynic efficacy compared with SAHA + iBET762 combination (SNI mice [4]; [6]) | mechanical antiallodynic activity, ipsilateral side (SNI mice [5]; 100 µM i.n.) | mechanical antiallodynic activity, ipsilateral side (SNI mice [5]; 200 µM i.n.) | mechanical antiallodynic efficacy compared with SAHA + iBET762 combination (SNI mice [5]; [6])
O=C(CCCCCCC(=O)Nc1ccccc1)NO [SAHA, suberoylanilide hydroxamic acid] | 60 |  |  |  |  |  |  |  |  |  |  | 
Cc1nnc2n1-c1ccc(C#CCCCC(=O)NO)cc1C(c1ccccc1)=NC2 [SUM35, N-hydroxy-6-(1-methyl-6-phenyl-4H-benzo[f][1,2,4]triazolo[4,3-a][1,4]diazepin-8-yl)hex-5-ynamide] |  | 1720 | Partial inhibition | did not produce any significant increase of the thermal pain threshold | preferential interaction for BRD4-BD2 | 118 | reaching the statistical significance | did not produce any significant increase of pain threshold | lower antiallodynic activity | reaching the statistical significance | did not produce any significant increase of pain threshold | lower antiallodynic activity
CCNC(=O)C[C@@H]1N=C(c2ccc(Cl)cc2)c2cc(OC)ccc2-n2c(C)nnc21 [iBET762, (4S)-6-(4-Chlorophenyl)-N-ethyl-8-methoxy-1-methyl-4H-[1,2,4]triazolo[4,3,a][1,4] benzodiazepine-4-acetamide] | 90 |  |  |  |  |  |  |  |  |  |  | 
